Reference: PMC6375636, “Monotherapy with a low-dose lipopeptide HIV fusion inhibitor maintains long-term viral suppression in rhesus macaques” (PLoS Pathogens, 2019)
Peptide text beside a SMILES is read from it. * marks the point of attachment. Stearoyl = CCCCCCCCCCCCCCCCCC(=O)*; Palmitoyl = CCCCCCCCCCCCCCCC(=O)*

Experiments:
[1] = test system: HIV-1 pseudovirus, primary Env AE03; format: cell-based; details: Env AE03, subtype A/E; mean ± SD of 3 assays in triplicate
How it was run: (§1)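 Env-pseudotyped viruses were made in HEK293T by cotransfecting an Env plasmid with the luciferase-encoding pSG3Δenv backbone. Threefold inhibitor dilutions were preincubated 1 h at room temperature with 100 TCID50 of virus, then added to TZM-bl cells (10^4/well) for 48 h at 37°C before luciferase was read.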

[2] = test system: HIV-1 pseudovirus, primary Env pREJO4541; format: cell-based; details: Env pREJO4541, subtype B; mean ± SD of 3 assays in triplicate
How it was run: as §1

[3] = test system: divergent HIV-1 subtypes (pseudoviruses with primary Envs); format: cell-based; details: mean of the 36 pseudoviruses of Table 3; for VRC01 >300000 apparently counted as 300000; read-out: Mean IC50 over divergent HIV-1 subtypes
How it was run: as §1

[4] = test system: HIV-1 pseudovirus, primary Env CH64.20; format: cell-based; details: Env CH64.20, subtype B/C; mean ± SD of 3 assays in triplicate
How it was run: as §1

[5] = test system: HIV-1 pseudovirus, primary Env CH110; format: cell-based; details: Env CH110, subtype B/C; mean ± SD of 3 assays in triplicate
How it was run: as §1

[6] = test system: replication-competent HIV-1 isolates; format: cell-based; details: mean of the ten isolates of Table 2; read-out: Mean IC50 over the replication-competent isolates
How it was run: as §1

[7] = test system: HIV-1 pseudovirus, primary Env JRFL; format: cell-based; details: subtype B, mean ± SD of 3 assays in triplicate
How it was run: as §1

[8] = lipopeptide alone, 10 μM in PBS, representative of 2 assays; for Helix content (%): [θ]222 / -33,000; for Tm (°C): ellipticity at 222 nm, 20-98°C, 2°C/min
[9] = test system: NL4-3V38A/N42T pseudovirus; format: cell-based, HIV-1; details: T-20 resistant, mean ± SD of 3 assays in triplicate
Protocol: (§2) The inhibitory activities of inhibitors against HIV-1 pseudoviruses and replication-competent isolates were measured as described previously. Briefly, HIV-1 pseudoviruses were generated via the cotransfection of HEK293T cells with an Env-expressing plasmid and a backbone plasmid that encodes Env-defective, luciferase-expressing HIV-1 genome (pSG3Δenv). Viral stocks of replication-competent HIV-1 isolates were generated by transfecting viral molecular clones into HEK293T cells. […] Inhibitors were prepared in 3-fold dilutions, mixed with 100 TCID50 of a virus, and then incubated for 1 h at room temperature. […] Luciferase activity was measured as described above.

NL4-3WT pseudovirus = format: cell-based, HIV-1; details: T-20 resistant, mean ± SD of 3 assays in triplicate, value in parentheses behind the bound
Protocol: as §2

[10] = target: T1, gp41 NHR-derived target mimic peptide N39 (Human immunodeficiency virus type 1 group M subtype B, UniProt P04578); test: CD spectroscopy of lipopeptides in complex with target mimic peptide N39; format: binding, HIV-1; design: [θ]222: unit not given here; details: complex with N39, each peptide 10 μM in PBS; representative of 2 assays
T1 construct: the gp41 NHR-derived target mimic peptide N39
From the text: Spectra were corrected by subtracting a solvent blank.

in vivo [11] = details: rhesus monkey, sc, 3 mg/kg
Protocol: A single-cycle infection assay was performed to determine the inhibitory activity of the monkey sera on HIV-1NL4-3 pseudovirus. The 50% effective concentration was defined as the fold serum dilution that inhibited 50% of virus infection.

SHIVSF162P3 = test: Therapeutic efficacy in chronically SHIV-infected rhesus monkeys; format: in vivo, Chinese rhesus macaques
[12] = Rat IV, 6 mg/kg, n = 6; serum, LC-MS/MS, non-compartmental
in vivo [13] = details: Sprague-Dawley, rat, 6 mg/kg

T1 sequence (P04578 528-566): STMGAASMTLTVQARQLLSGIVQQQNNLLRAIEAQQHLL

Question: Which IC50 [1] does the source give for `CCCCCCCCCCCCCCCCCC(=O)NCCCC[C@H](NC(=O)[C@H](CCC(=O)O)NC(=O)[C@H](CC(C)C)NC(=O)[C@H](CCCCN)NC(=O)[C@H](CCCCN)NC(=O)[C@H](CC(C)C)NC(=O)[C@H](CCC(=O)O)NC(=O)[C@H](CCC(=O)O)NC(=O)[C@H](CCC(=O)O)NC(=O)[C@H](CC(N)=O)NC(=O)[C@H](CCCCN)NC(=O)[C@H](CCCCN)NC(=O)[C@H](CCC(N)=O)NC(=O)[C@H](CCC(N)=O)NC(=O)[C@H](CCC(=O)O)NC(=O)[C@H](CCC(=O)O)NC(=O)[C@H](C)NC(=O)[C@H](CCCCN)NC(=O)[C@H](CCCCN)NC(=O)[C@H](CC(C)C)NC(=O)[C@H](CC(C)C)NC(=O)[C@H](CCC(=O)O)NC(=O)[C@H](CCC(=O)O)NC(=O)[C@@H](NC(C)=O)[C@@H](C)CC)C(N)=O` [LP-90] (Ac-IEELLKKAEEQQKKNEEELKKLEK(Stearoyl)-NH2) here?
Answer: 0.0141 ± 0.00417 nM

Question: What about the IC50 [2] of the same compound?
Answer: 0.0159 ± 0.00313 nM

Question: What about the IC50 [3] of the same compound?
Answer: 0.0134 nM

Question: What about the IC50 [4] of the same compound?
Answer: 0.00772 ± 0.00267 nM

Question: And the IC50 [5]?
Answer: 0.00785 ± 0.00122 nM

Question: What about the IC50 [6] of the same compound?
Answer: 0.0237 nM

Question: What about the IC50 [7] of the same compound?
Answer: 0.0122 ± 0.00083 nM

Question: And the “Helix content (%)” value [8]?
Answer: 30%

Question: And the IC50 [9]?
Answer: 49.2 ± 2.19 nM

Question: And the IC50 (NL4-3WT pseudovirus)?
Answer: 0.03 nM

Question: What about the “Helix content (%)” value [10] of the same compound?
Answer: 42%

Question: And the “[θ]222” value [10]?
Answer: -13989

Question: For `CCCCCCCCCCCCCCCC(=O)NCCCC[C@H](NC(=O)[C@H](CCC(=O)O)NC(=O)[C@H](CC(C)C)NC(=O)[C@H](CCCCN)NC(=O)[C@H](CCCCN)NC(=O)[C@H](CC(C)C)NC(=O)[C@H](CCC(=O)O)NC(=O)[C@H](CCC(=O)O)NC(=O)[C@H](CCC(=O)O)NC(=O)[C@H](CC(N)=O)NC(=O)[C@H](CCCCN)NC(=O)[C@H](CCCCN)NC(=O)[C@H](CCC(N)=O)NC(=O)[C@H](CCC(N)=O)NC(=O)[C@H](CCC(=O)O)NC(=O)[C@H](CCC(=O)O)NC(=O)[C@H](C)NC(=O)[C@H](CCCCN)NC(=O)[C@H](CCCCN)NC(=O)[C@H](CC(C)C)NC(=O)[C@H](CC(C)C)NC(=O)[C@H](CCC(=O)O)NC(=O)[C@H](CCC(=O)O)NC(=O)[C@@H](NC(=O)[C@H](CCCCN)NC(=O)[C@H](CCC(N)=O)NC(=O)[C@H](CCC(=O)O)NC(=O)[C@H](Cc1c[nH]c2ccccc12)NC(C)=O)[C@@H](C)CC)C(N)=O` [LP-52, reference compound] (Ac-WEQKIEELLKKAEEQQKKNEEELKKLEK(Palmitoyl)-NH2), which IC50 [1] is on record?
Answer: 0.0109 ± 0.00189 nM

Question: What about the IC50 [2] of the same compound?
Answer: 0.00722 ± 0.00085 nM

Question: What about the IC50 [3] of the same compound?
Answer: 0.017 nM

Question: What about the IC50 [4] of the same compound?
Answer: 0.00971 ± 0.00084 nM

Question: What about the IC50 [5] of the same compound?
Answer: 0.00798 ± 0.0013 nM

Question: And the IC50 [6]?
Answer: 0.0169 nM

Question: What about the IC50 [7] of the same compound?
Answer: 0.0467 ± 0.00696 nM

Question: What about the “[θ]222” value ([8]; room temperature) of the same compound?
Answer: -14952 degree.cm^2.dmol^-1

Question: And the “Helix content (%)” value [8]?
Answer: 45%

Question: And the “Tm (°C)” value [8]?
Answer: 56 °C

Question: What about the “Helix content (%)” value [10] of the same compound?
Answer: 64%

Question: And the “[θ]222” value [10]?
Answer: -21060

Question: Which results are given for `CCCCCCCCCCCCCCCCCC(=O)NCCCC[C@H](NC(=O)[C@H](CCC(=O)O)NC(=O)[C@H](CC(C)C)NC(=O)[C@H](CCCCN)NC(=O)[C@H](CCCCN)NC(=O)[C@H](CC(C)C)NC(=O)[C@H](CCC(=O)O)NC(=O)[C@H](CCC(=O)O)NC(=O)[C@H](CCC(=O)O)NC(=O)[C@H](CC(N)=O)NC(=O)[C@H](CCCCN)NC(=O)[C@H](CCCCN)NC(=O)[C@H](CCC(N)=O)NC(=O)[C@H](CCC(N)=O)NC(=O)[C@H](CCC(=O)O)NC(=O)[C@H](CCC(=O)O)NC(=O)[C@H](C)NC(=O)[C@H](CCCCN)NC(=O)[C@H](CCCCN)NC(=O)[C@H](CC(C)C)NC(=O)[C@H](CC(C)C)NC(=O)[C@H](CCC(=O)O)NC(=O)[C@H](CCC(=O)O)NC(=O)[C@@H](NC(=O)[C@H](CCCCN)NC(=O)[C@H](CCC(N)=O)NC(=O)[C@H](CCC(=O)O)NC(=O)[C@H](Cc1c[nH]c2ccccc12)NC(C)=O)[C@@H](C)CC)C(N)=O` [LP-80] (Ac-WEQKIEELLKKAEEQQKKNEEELKKLEK(Stearoyl)-NH2)?
Answer: AUC(0-inf) (in vivo [11]): 601 ± 29.3 µg·h/mL; AUC(0-t) (in vivo [11]): 601 ± 29.3 µg·h/mL; CL/F (in vivo [11]): 0.0833 mL/min/kg; Cmax (in vivo [11]): 24800 ± 10800 ng/mL; MRT (in vivo [11]): 23.7 ± 2.26 h; Tmax (in vivo [11]): 5.83 ± 3.82 h; Vd/F (in vivo [11]): 0.0989 ± 0.0034 L/kg; half-life (in vivo [11]): 13.7 ± 0.86 h; IC50 [1]: 0.00344 ± 0.00083 nM; IC50 [2]: 0.0014 ± 0.00061 nM; IC50 [3]: 0.00558 nM; IC50 [4]: 0.00575 ± 0.00019 nM; IC50 [5]: 0.0033 ± 0.00029 nM; IC50 [6]: 0.00709 nM; IC50 [7]: 0.0104 ± 0.00225 nM; Helix content (%) [8]: 52%; Tm (°C) [8]: 56 °C; Plasma viral load (SHIVSF162P3; 1st treatment, SC 3 mg/kg once daily, monkeys K3 and K5, 8 days after treatment, detection limit 100 copies/ml): declined to below the detection limit; Viral replication during treatment (SHIVSF162P3; 1st treatment, SC 3 mg/kg once every 4 days for 4 weeks, five monkeys): fully controlled; Viral rebound during treatment (SHIVSF162P3; 2nd treatment, SC 3 mg/kg twice weekly for 6 months): no viral rebound was detected; Plasma viral load after one injection (SHIVSF162P3; 2nd treatment, SC 3 mg/kg twice weekly, all five monkeys, day 4, before: mean 4.5 log10 RNA copies/ml): below the detection limit; PBMC vDNA load (SHIVSF162P3; 2nd treatment, monkeys K1, K2, K4, K5, detection limit 100 copies/μg total DNA): undetectable levels; Time to viral load rebound after LP-80 was stopped (SHIVSF162P3; after 1st treatment, all treated monkeys): 10 to 21 days; Time to virus rebound after LP-80 cessation (SHIVSF162P3; after 2nd treatment, four monkeys (K1 to K4)): 14 to 28 days; Viral load after LP-80 withdrawal (SHIVSF162P3; after 2nd treatment, monkey K5, 2 months after withdrawal): remained undetectable; Mean PBMC vDNA load (SHIVSF162P3; after a 2-month treatment (2nd treatment), declined from 3.7, quantitative PCR): 2.3 log10 vDNA copies/μg total DNA; Helix content (%) [10]: 57%; [θ]222 [10]: -18955; Cl_F_obs/Cl_obs [12]: 0.3552 ± 0.0563 mL/min/kg; level at 72 h (in vivo [13]): ~7 ng/mL; AUC(0-inf) (in vivo [13]; iv): 288 ± 49.4 µg·h/mL; AUC(0-t) (in vivo [13]; iv): 288 ± 49.4 µg·h/mL; Cmax (in vivo [13]; iv): 53300 ± 10600 ng/mL; MRT (in vivo [13]; iv): 7.53 ± 0.85 h; Tmax (in vivo [13]; iv): 0.08 h; Vd (in vivo [13]; iv): 0.183 ± 0.0216 L/kg; AUC(0-inf) (in vivo [13]; sc): 114 ± 33.6 µg·h/mL; AUC(0-t) (in vivo [13]; sc): 114 ± 33.6 µg·h/mL; CL/F (in vivo [13]; sc): 0.958 mL/min/kg; Cmax (in vivo [13]; sc): 7650 ± 1580 ng/mL; MRT (in vivo [13]; sc): 9.73 ± 1.11 h; Tmax (in vivo [13]; sc): 4 ± 2.19 h

Question: For “enfuvirtide [Lipopeptide T-20, reference compound]”, which IC50 [1] is on record?
Answer: 12.38 ± 0.109 nM

Question: What about the IC50 [2] of the same compound?
Answer: 55 ± 2.9 nM

Question: And the IC50 [3]?
Answer: 30 nM

Question: What about the IC50 [4] of the same compound?
Answer: 33.3 ± 1.18 nM

Question: What about the IC50 [5] of the same compound?
Answer: 31 ± 2.67 nM

Question: What about the IC50 [6] of the same compound?
Answer: 15.3 nM

Question: What about the IC50 [7] of the same compound?
Answer: 9.62 ± 0.502 nM

Question: What about the IC50 [9] of the same compound?
Answer: 5950 ± 700 nM

Question: And the IC50 (NL4-3WT pseudovirus)?
Answer: 166 ± 19 nM
